In US6664271B1, “Immunopotentiator agents” (Eli Lilly and Company, priority 1999, dated 2003):
Marks after values point to notes of the source that are not given here.

Tested on: E. coli 19B
Assay: bacterial clearance of E. coli from peripheral blood of neonatal chicks (Example 77)
Format: in vivo, chick
Details: single subcutaneous injection of 25 μg, E. coli challenge, blood 14-18 hours post-challenge
Method: The compounds of Example 15 ((S)-ethyl 1-benzoyl-3-piperidinecarboxylate), Example 29 (1-benzoyl-3-butyrylpiperidine), Example 30 ((S)-ethyl 1-(2-thiopheneacetyl)-3-piperidinecarboxylate) and Example 68 ((S)-ethyl 1-benzyl-3-piperidinecarboxylate 1-methiodide), respectively, were tested to determine whether a single subcutaneous injection enhanced the bacterial clearance of E. coli from the peripheral blood of neonatal chicks. Bacterial clearance is a measurement of cell-mediated immunity, specifically, phagocyte function, in animals. An approved Animal Care and Use Committee protocol governed the activity in this experiment.
1 ml syringes with 21 g 1″ needles (Becton Dickinson and Company Franklin Lakes, N.J. 07417-1884); 1 ml syringe with 25 g ⅝″ needles (Becton Dickinson and Company Franklin Lakes, N.J. 07417-1884); EMB agar plates (Difco Laboratories, Becton Dickinson Microbiology Systems, Sparks, Md. 21152); Culture tubes (14 ml polystyrene round bottom, Becton Dickinson Labware, Franklin Lakes, N.J. 07417-1886); Dulbecco's Phosphate Buffered Saline w/o Mg^++ or Ca^++ (Gibco BRL, Life Technologies Rockville, Md. 20850). Peterson x Hubbard male chicks (day of hatch from a commercial hatchery) were utilized
160 chicks were divided into 6 groups: Group 1=Controls (acetate-buffered saline vehicle); Group 2=Compound of Example 15 ((S)-ethyl 1-benzoyl-3-piperidinecarboxylate); Group 3=Compound of Example 29 (1-benzoyl-3-butyrylpiperidine); Group 4=Compound of Example 30 ((S)-ethyl 1-(2-thiopheneacetyl)-3-piperidinecarboxylate); Group 5=Compound of Example 68 ((S)-ethyl 1-benzyl-3-piperidinecarboxylate 1-methiodide); and Group 6=environmental controls. Groups 1-5 contained 3 replicates of 10 chicks each and Group 6 contained 1 replicate of 10 chicks.
Day −2 Upon arrival, day of hatch chicks were randomized (10/group), and placed in a Petersime heated brooder battery unit (Petersime Incubator Company, Gettysburg, Ohio 45328). […] All chicks were given ad libitum access to a commercially available starter feed and water.
Day 0 11:00 AM. Five to ten colonies of E. coli 19B were selected from a fresh overnight blood agar plate (TSA II with 5% sheep blood, Becton Dickinson Microbiology Systems Cockeysville, Md. 21030) and placed into 100 ml Brain Heart Infusion broth (Difco Laboratories, Becton Dickinson Microbiology Systems Sparks, Md. 21152) in a flask. […]
Day 5 EMB plates were removed from the incubator and bacterial colonies were counted and recorded to calculate CFU/ml/chick.
Data was transformed to logio values, and analysis of variance was used to determine significant differences between the treatment groups and controls. Data was expressed as the percentage of enhancedbacterial clearance compared to E. coli-challenged controls. […]

SMILES: CCOC(=O)[C@H]1CCCN(C(=O)Cc2cccs2)C1 [Example 30, (S)-Ethyl 1-(2-Thiopheneacetyl)-3-piperidinecarboxylate]
- % Enhanced Clearance Compared to Controls: 61* %
